Structures are written as SMILES.

The assay deals with Plasmodium falciparum. Kind of assay: GSK_TCMDC: Inhibition of Plasmodium falciparum 3D7 in whole erythrocytes, using parasite LDH activity as an index of growth. In kind it is functional, organism-based. The following applies: Plasmodium falciparum, 3D7.
Consider `Cc1ccc(OCC2CCN(c3ncc(C(=O)NC4CC4)cc3Cl)CC2)cc1`, for which the XC50 is 1090 nM.

`CCOc1c(CNCCCNc2nc3ccccc3[nH]2)cc(I)cc1OC` yielded an XC50 of 663 nM.

As for `CCN1CCc2nc3ccccc3c(C(=O)Nc3ccc(C#N)cc3)c2C1`, the XC50 is 780 nM.

For the compound `O=C(Nc1ccc(Cl)c(C(F)(F)F)c1)N[C@H]1CCN(CCCCCNC(=O)C2CC2c2ccc(Cl)c(Cl)c2)C1` (stereo not given in full), the XC50 turned out to be 1080 nM.

Compound `O=C(Nc1cccc(C(F)(F)F)c1)c1cccc(S(=O)(=O)NCC2CCN(CC3CCCCC3)CC2)c1` came in with an XC50 of 1470 nM.

The compound `CN1CCc2cc(CN3CC4(C)CC3CC(C)(C)C4)c(O)cc2C(c2ccccc2)C1` (stereo not given) returned an XC50 of 720 nM.

`COc1cc(C(=O)Nc2ccc(-c3nc4ccccc4[nH]3)cc2)cc(OC)c1OC` returned an XC50 of 982 nM.

`Cc1cccc2nc(-c3cccc(-c4ccc(NC(=O)C5CCN(C)CC5)cc4)c3)[nH]c12` showed an XC50 of 829 nM.

In the case of `Cc1cc(NC(=O)Nc2cccc(Cl)c2Cl)c2ccccc2n1`, the XC50 turned out to be 744 nM.

`O=C(Cn1c(SCc2cccc(F)c2F)cc(=O)c2ccccc21)N(CCc1c[nH]cn1)Cc1ccc(-c2ccc(C(F)(F)F)cc2)cc1` had an XC50 of 801 nM.

Regarding `Cc1[nH]c(C)c(-c2ccc(OCCSc3ccncc3)cc2)c(=O)c1Br`, the XC50 turned out to be 393 nM.

Compound `O=C(NCCc1ccccc1)N(Cc1cccc(-c2ccc(CNCc3ccc4c(c3)OCO4)cc2)c1)C1CCN(Cc2ccccc2)CC1` showed an XC50 of 661 nM.

Regarding `O=C(NC1CCN(CCN2CCC(c3ccccc3C(F)(F)F)CC2)CC1)c1ccc(-c2ccc(Cl)cc2)cc1`, the XC50 amounted to 714 nM.

Compound `CC[C@H]1CN2CC[C@H]1C[C@H]2[C@H](O)c1cc(/C=C/c2ccccc2)nc2ccc(OC)cc12` had an XC50 of 42.7 nM.

In the case of `CCc1c[nH]c2c(N3CCCCS3(=O)=O)cc(C(=O)N[C@@H](Cc3ccccc3)[C@H](O)CNCc3cccc(OC)c3)cc12`, the XC50 was 909 nM.

`COC(=O)[C@@H](NC(=O)[C@@H](Nc1ccc(C#N)c2ccccc12)C(C)(C)C)c1ccc(O)cc1` gave an XC50 of 777 nM.

Consider `Cc1ccc(NC(=O)Nc2ccccc2F)cc1-c1ccc(C(=O)Nc2ccncc2)cc1`, for which the XC50 is 563 nM.

Turning to `Cc1ccc(C)c(NC(=O)NC2CCN(c3ccnc(Nc4ccc(F)cc4)n3)C2)c1` (stereo not given), the XC50 was 675 nM.

The compound `CCOC(=O)c1cnc2c(OC)cc(OC)c(Cl)c2c1Nc1ccccc1` returned an XC50 of 871 nM.

With `Nc1nc2c(c(=O)[nH]1)CN(S(=O)(=O)c1ccc(C(=O)N[C@@H](CCC(=O)O)C(=O)O)cc1)CC2`, the XC50 turned out to be 146 nM.

`CC(Cc1ccc(OCc2ccc(CCN(C)C)cc2)cc1)NCCc1cccc(Cl)c1` (stereo not given) yielded an XC50 of 769 nM.

Compound `CN1CCC(C(=O)N(Cc2ccc(-c3ccc(CNCCc4ccccc4)cn3)cc2)C2CCN(Cc3ccccc3)CC2)CC1` gave an XC50 of 787 nM.

The compound `Nc1c2c(nc3cc(NC(=O)c4ccc([N+](=O)[O-])cc4)ccc13)CCCC2` showed an XC50 of 475 nM.

Consider `Cc1nc2nc(N)nc(N)c2c(C)c1Cc1ccc([N+](=O)[O-])cc1`, for which the XC50 came out at 438 nM.

`CCCCCCCCc1c(C)nc(C)c(C#N)c1O` yielded an XC50 of 402 nM.

`Cc1cc(N2CCN(C3CCCCC3)CC2)nc2cccc(O)c12` showed an XC50 of 701 nM.

As to `Cc1cccc2nc(-c3ccc(-c4cccc(NC(=O)NCc5ccccc5)c4)cc3)[nH]c12`, the XC50 was determined as 777 nM.

Compound `CCc1ccc(CN(CCCOc2cccc(CC(=O)NCc3c[nH]cn3)c2)Cc2ccc(-n3ccnc3)cc2)cc1` showed an XC50 of 979 nM.

The compound `CN1CCCN(Cc2ccc(-c3ccc(NC(=O)c4ccc(C#N)cc4)cc3)cc2)CC1` showed an XC50 of 1020 nM.

As to `COC(=O)CCCOc1cc(Cc2cnc(N)nc2N)cc(OC)c1OC`, the XC50 worked out at 767 nM.

`Cc1cc(NCCc2ccccc2)nc(NC(=N)Nc2ccc(Cl)cc2)n1` returned an XC50 of 232 nM.

Compound `COc1ccc2ncc(F)c([C@H](O)CN3CCC(NCc4ccc5c(c4)OCCO5)CC3)c2c1` registered an XC50 of 152 nM.

Regarding `O=C(Nc1ccc(OC2CCN(Cc3ccc(F)cc3)CC2)c(Cl)c1)c1cccs1`, the XC50 was 318 nM.

Take `COc1ccc(-c2ccc(NC(=O)c3ccc(Cl)cc3)cc2)cc1CN1CCCN(C)CC1`: the XC50 came out at 648 nM.

With `CN(C)CCCn1cncc1-c1ccc2ncnc(Nc3ccc(OCc4ccccc4)cc3)c2c1`, the XC50 turned out to be 524 nM.

For the compound `CC(C)(C)c1nn(-c2ccccc2)c2[nH]c(=O)c(CNC3CCCCC3)cc12`, the XC50 came out at 1250 nM.

The compound `Nc1c2c(nc3ccc(NC(=O)CCCCCc4ccccc4)cc13)CCCC2` had an XC50 of 438 nM.

The compound `N=C(N)NN=CC(=O)Nc1ccc(Br)cc1` gave an XC50 of 884 nM.

Consider `O=C(c1cc(-c2ccccc2O)on1)N1CCN(C(c2ccccc2)c2ccccc2)CC1`, for which the XC50 was 335 nM.

The compound `COC(=O)c1ccc(CC(C)NCC(O)c2cc(Cl)c(N)c(Cl)c2)cc1` (stereo not given) returned an XC50 of 877 nM.

With `Cc1ccoc1C(=O)Nc1ccc(-c2cccc(-c3nc4cccc(C)c4[nH]3)c2)cc1`, the XC50 came out at 726 nM.

Compound `Oc1ccc2ncnc(Nc3ccc(OCc4cccc(F)c4)c(Cl)c3)c2c1` yielded an XC50 of 993 nM.

With `Cc1cc(N[C@@H](Cc2ccccc2)C(=O)Nc2ccccc2)nc(NCCc2ccccc2)n1`, the XC50 was 871 nM.

Regarding `CN(C)CCCOc1ccc(CN2CC[C@H](NC(=O)c3ccc(Cl)c(Cl)c3)C2)c2ccccc12`, the XC50 amounted to 879 nM.

In turn, `COc1c(C2CCN(CCCCNC(=O)c3ccc(-c4ccc(Cl)cc4)c(O)c3)CC2)ccc2c1CCCC2` returned an XC50 of 226 nM.

In turn, `c1cc(CNCCc2ccncc2)cc(-c2cccc(-c3nc4ccccc4[nH]3)c2)c1` returned an XC50 of 146 nM.

For `O=C(NCc1ccc(Cl)c(Cl)c1)c1ccc(C2CCCN(Cc3ccc4[nH]cnc4c3)C2)cc1` (stereo not given), the XC50 was 776 nM.

`CCCCCCCCCc1c(C)[nH]c2ccccc2c1=O` had an XC50 of 163 nM.

Regarding `Oc1c(C(Nc2nc3ccccc3s2)c2ccccc2)ccc2cccnc12` (stereo not given), the XC50 came to 646 nM.

On to `N=C(N)c1ccc(NC(=O)c2cc(Sc3ccc(O)c(C(=O)Nc4ccc(C(=N)N)cc4)c3)ccc2O)cc1`, for which the XC50 was 122 nM.

As to `COc1ccc(NC(=O)/C=C/c2ccccc2Cl)cc1OCCN1CCC(NC2CC2)CC1`, the XC50 is 842 nM.

Compound `COc1ccc2nccc([C@@H](O)CN3CCC(NCc4cc5c(cc4F)SCC(=O)N5)CC3)c2n1` came in with an XC50 of 1000 nM.

`O=C(N[C@@H](Cc1ccccc1)[C@H](O)CNC1CCOCC1)c1cc(C2CCCC2)cc(N2CCCCS2(=O)=O)c1`: the XC50 turned out to be 202 nM.

The compound `O=S(=O)(NCCN1CCCC1)c1ccc(-c2ccc(CNCc3ccsc3)cc2)s1` showed an XC50 of 832 nM.

`COc1cccc(C(=O)NCCOc2ccccc2)c1Oc1ccccc1` gave an XC50 of 918 nM.

In turn, `COc1ccccc1CN1CCC(NC(=O)c2ccc(-c3ccc(N(C)C)cc3)s2)CC1` registered an XC50 of 958 nM.

For the compound `O=C(/C=C/c1ccc(Cl)c(Cl)c1)NCCCCCN1CCC(NC(=O)Nc2ccc(Cl)cc2Cl)CC1`, the XC50 was 640 nM.

Consider `N#Cc1cccc(C(=O)Nc2ccc(-c3nc4ccccc4[nH]3)cc2)c1`, for which the XC50 amounted to 541 nM.

`CCCCCCN1CCC(NCc2ccc(CN(C)C)cc2)CC1` returned an XC50 of 1270 nM.

`Cc1cc(Nc2cccc(C(F)(F)F)c2)nc(NCc2ccccc2)n1` gave an XC50 of 148 nM.

Compound `Nc1nc2c(ncn2COC2COP(=O)(O)OC2)c(=O)[nH]1` (stereo not given) came in with an XC50 of 454 nM.

With `N#Cc1cncc(-c2nc3c(N4CCC(Cc5ccccc5)CC4)cccc3n2C2CCNC2)c1` (stereo not given), the XC50 was 987 nM.

The compound `CC1(C)C2C=C(CN3CCC(NC(=O)Nc4ccc(Cl)c(Cl)c4)CC3)C1CC2` (stereo not given) yielded an XC50 of 761 nM.

`O=C(c1cc(C(F)(F)F)cc(C(F)(F)F)c1)N1CCC(CCN2CCC3(CC2)C(=O)NCN3c2ccccc2)CC1Cc1ccc(Cl)c(Cl)c1` (stereo not given) came in with an XC50 of 656 nM.

With `COc1ccc(CN2CCC(NCc3cccc(C(F)(F)F)c3)CC2)cc1`, the XC50 is 753 nM.

For the compound `Cc1sc2nc(CSc3ccccc3)nc(N3CCN(CC(=O)NC4CC4)CC3)c2c1C`, the XC50 was determined as 462 nM.

Compound `O=c1cc(NCCCNCc2cccc(C(F)(F)F)c2Cl)[nH]c2ccccc12` gave an XC50 of 804 nM.

`Cc1nc2nc(N)nc(N)c2c(C)c1Cc1cccc(F)c1` displayed an XC50 of 341 nM.

As to `CCC[C@@H]([C@@H](CC1CCCCC1)C(=O)N[C@H](C(=O)Nc1ccccn1)[C@H](C)CC)N(O)C=O`, the XC50 worked out at 533 nM.

Take `Cc1cccc2nc(-c3cccc(-c4cccc(CNCc5ccc(S(C)(=O)=O)cc5)c4)c3)[nH]c12`: the XC50 stood at 299 nM.

Compound `FC(F)(F)COc1c(CCNCCCCNCCc2ccc3ccccc3c2OCC(F)(F)F)ccc2ccccc12` came in with an XC50 of 348 nM.

As to `CCOC(=O)c1ccc(-c2c(C(F)(F)F)noc2-c2cc(CC)c(OC)cc2O)o1`, the XC50 is 206 nM.

The compound `N#Cc1cccc(NC(=O)Nc2cccc(-c3ccc(-c4nc5cc(C(F)(F)F)ccc5[nH]4)cc3)c2)c1` gave an XC50 of 247 nM.

On to `Nc1ncc(-c2ccc(Cl)c(Cl)c2)c(N)n1`, for which the XC50 is 727 nM.

`c1ccc2c(c1)CN(CC1CCOCC1)CC1(CCN(Cc3c[nH]c4cnccc34)CC1)O2`: the XC50 was 1550 nM.

`COc1ccc(-c2cc(C(=O)N[C@@H](Cc3ccccc3)C(=O)NCCN3CCCCC3)ccc2O)cc1` gave an XC50 of 792 nM.

`O=S(=O)(c1cccc(C(F)(F)F)c1)N1CCC(CO)(Cc2cccc(C(F)(F)F)c2)CC1`: the XC50 was found to be 964 nM.

Compound `O=C(Nc1ccc(OC2CCN(Cc3ccccc3)C2)c(Cl)c1)c1ccc(F)cc1` (stereo not given) returned an XC50 of 791 nM.

`Cc1cc(C(=O)NC2CCN(CC3(c4ccc(Cl)cc4)CCC3)CC2)on1` yielded an XC50 of 92 nM.

The compound `CCCN(CCC)C(=O)c1cc(C(=O)N[C@@H](Cc2ccccc2)[C@H](O)CNC(C)(C)c2cccc(OC)c2)cc(N2CCCCS2(=O)=O)c1` had an XC50 of 29.8 nM.

With `CC(Cc1ccc(NC(=O)[C@H](C)NCCc2cccc(Cl)c2)cc1)NCCc1cccc(Cl)c1` (stereo not given in full), the XC50 came to 663 nM.

As to `CC1(C)N=C(N)N=C(N)N1c1ccc(Oc2ccc(Cl)cc2)c(Cl)c1`, the XC50 was 78.9 nM.

Regarding `CO/C(=C\C=C\c1cc2cc(Cl)c(Cl)cc2[nH]1)C(=O)NC1CCN(CCOc2ccccc2)CC1`, the XC50 was determined as 611 nM.

With `COc1cccc(CNC(=O)[C@@H]2CN(C(=O)c3ccccc3)CCN2)c1`, the XC50 stood at 1160 nM.

The compound `Cc1nc(N/C=C/c2ccc(O)cc2)cc(N2CCCC2)n1` displayed an XC50 of 1070 nM.

Values taken from ChEMBL document CHEMBL1157539, “Thousands of chemical starting points for antimalarial lead identification” (Nature, 2010).
